Ki data for 26 molecules are collected here from US8748624B2, “Picolinamido-propanoic acid derivatives useful as glucagon receptor antagonists” (Janssen Pharmaceutica NV, priority 2011, dated 2014).

The target of the assay is human GCGR (Homo sapiens (Human), UniProt P47871). In words: Cellular functional assay, cAMP readout (glucagon-stimulated cAMP in HEK293 cells expressing human GCGR). It is filed as cell-based. The settings on record: hGluc-1 HEK cells, LANCE TR-FRET, IC50 converted to Ki, average if tested more than once. As for the experimental part: IC50 Values in Cellular Functional Assays: cAMP Readout
Chain of human GCGR (P47871 26-477): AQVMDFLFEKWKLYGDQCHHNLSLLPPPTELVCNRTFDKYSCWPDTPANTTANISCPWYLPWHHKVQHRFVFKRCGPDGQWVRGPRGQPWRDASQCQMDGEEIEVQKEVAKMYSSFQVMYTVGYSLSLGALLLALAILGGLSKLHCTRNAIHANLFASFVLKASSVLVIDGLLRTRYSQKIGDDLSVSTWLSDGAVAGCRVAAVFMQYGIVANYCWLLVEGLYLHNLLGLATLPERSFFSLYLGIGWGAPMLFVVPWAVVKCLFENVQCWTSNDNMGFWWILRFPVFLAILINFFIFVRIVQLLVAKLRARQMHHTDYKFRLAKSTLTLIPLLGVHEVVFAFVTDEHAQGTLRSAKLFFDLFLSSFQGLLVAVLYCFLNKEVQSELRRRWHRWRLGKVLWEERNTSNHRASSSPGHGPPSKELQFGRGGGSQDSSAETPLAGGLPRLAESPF
Full-length human GCGR (Accession Number: NM000160) subcloned into pcDNA3.1 was stably transfected into HEK293 cells (hGluc-1 HEK) and maintained under G418 selection (500 μg/mL). Cell cultures were maintained in DMEM/F12 media supplemented with 10% FBS and 1% GlutaMax. Glucagon stimulated cAMP was quantified using LANCE technology as per manufacturer instructions. On the day of the experiment, spent media was removed and cells were washed with Hank's Buffered Saline solution (HBSS) and cells were harvested with non-enzymatic cell dissociation solution, then washed once with HBSS. Cells were re-suspended in stimulation buffer at a concentration of 0.83×10^6 cells/ml and cAMP detection antibody was added. 6 μl/well of this solution was then dispensed in a 384 well plate (cell density 5000 cells/well). Test compound was serially diluted in DMSO and 50 nl were dispensed on top of the cell solution and allowed to incubate for 30 minutes. 6 μl of a 2× glucagon solution (final concentration in assay […]) was then added and the reaction was terminated after 5 minutes with the addition of detection mix. The mixture was incubated, protected from light for 1.5 h. cAMP levels were quantified by TR-FRET in an EnVision instrument against a known standard. IC50's were generated by using a non-linear regression macro driven in Excel and converted to K, values.

The molecule `O=C(O)CCNC(=O)c1ccc(-c2cc(Cl)ccc2CNc2ccc(-c3ccc(F)cc3F)cc2)cn1` [Compound 18, 3-(5-(5-chloro-2-(((2′,4′-difluoro-[1,1′-biphenyl]-4-yl)amino)methyl)phenyl)picolinamido)propanoic acid] came in with a Ki of 280 nM.
The molecule `O=C(O)CCNC(=O)c1ccc(-c2cc(C(F)(F)F)ccc2CNc2ccc(-c3ccc(Cl)cc3C(F)(F)F)cc2)cn1` [Compound 25] registered a Ki of 220 nM.
For `COc1ccc(CNc2ccc(-c3ccc(Cl)cc3)cc2)c(-c2ccc(C(=O)NCCC(=O)O)nc2)c1` [Compound 45, 3-(5-(2-(((4′-chloro-[1,1′-biphenyl]-4-yl)amino)methyl)-5-methoxyphenyl)picolinamido)propanoic acid] the value was over 20000 nM; for `COc1ccc(CNc2ccc(-c3ccc(Cl)cc3Cl)cc2)c(-c2ccc(C(=O)NCCC(=O)O)nc2)c1` [Compound 46, 3-(5-(2-(((2′,4′-dichloro-[1,1′-biphenyl]-4-yl)amino)methyl)-5-methoxyphenyl)picolinamido)propanoic acid], over 20000 nM.
For `COc1ccc(CNc2ccc(-c3ccc(C(F)(F)F)cc3)cc2)c(-c2ccc(C(=O)NCCC(=O)O)nc2)c1` [Compound 47, 3-(5-(5-methoxy-2-(((4′-(trifluoromethyl)-[1,1′-biphenyl]-4-yl)amino)methyl)phenyl)picolinamido)propanoic acid] the value was over 20000 nM.
`COc1ccc(CNc2ccc(-c3ccc(OC(F)(F)F)cc3)cc2)c(-c2ccc(C(=O)NCCC(=O)O)nc2)c1` [Compound 48, 3-(5-(5-methoxy-2-(((4′-(trifluoromethoxy)-[1,1′-biphenyl]-4-yl)amino)methyl)phenyl)picolinamido)propanoic acid]: the Ki was over 20000 nM.
Turning to `COc1ccc(CNc2ccc(-c3ccc(C(C)(C)C)cc3)cc2)c(-c2ccc(C(=O)NCCC(=O)O)nc2)c1` [Compound 49, 3-(5-(2-(((4′-(tert-butyl)-[1,1′-biphenyl]-4-yl)amino)methyl)-5-methoxyphenyl)picolinamido)propanoic acid], the Ki was over 20000 nM.
For `COc1ccc(CNc2ccc(-c3cccc(OC(F)(F)F)c3)cc2)c(-c2ccc(C(=O)NCCC(=O)O)nc2)c1` [Compound 50, 3-(5-(5-methoxy-2-(((3′-(trifluoromethoxy)-[1,1′-biphenyl]-4-yl)amino)methyl)phenyl)picolinamido)propanoic acid] the value was over 20000 nM; for `O=C(O)CCNC(=O)c1ccc(-c2cc(C(F)(F)F)cc(C(F)(F)F)c2CNc2ccc(-c3ccc(Cl)cc3)c(Cl)c2)cn1` [Compound 76, 3-(5-(2-(((2,4′-dichloro-[1,1′-biphenyl]-4-yl)amino)methyl)-3,5-bis(trifluoromethyl)phenyl)picolinamido)propanoic acid], 14.5 nM; for `Cc1cc(Cl)ccc1-c1ccc(NCc2c(-c3ccc(C(=O)NCCC(=O)O)nc3)cc(C(F)(F)F)cc2C(F)(F)F)cc1` [Compound 81, 3-(5-(2-(((4′-chloro-2′-methyl-[1,1′-biphenyl]-4-yl)amino)methyl)-3,5-bis(trifluoromethyl)phenyl)picolinamido)propanoic acid], 10 nM.
For `Cc1cc(C(F)(F)F)ccc1-c1ccc(NCc2c(-c3ccc(C(=O)NCCC(=O)O)nc3)cc(C(F)(F)F)cc2C(F)(F)F)cc1` [Compound 83, 3-(5-(2-(((2′-methyl-4′-(trifluoromethyl)-[1,1′-biphenyl]-4-yl)amino)methyl)-3,5-bis(trifluoromethyl)phenyl)picolinamido)propanoic acid] the value was 14.1 nM; for `O=C(O)CCNC(=O)c1ccc(-c2cc(C(F)(F)F)cc(C(F)(F)F)c2CNc2ccc(-c3cccc(Cl)c3Cl)cc2)cn1` [Compound 84, 3-(5-(2-(((2′,3′-dichloro-[1,1′-biphenyl]-4-yl)amino)methyl)-3,5-bis(trifluoromethyl)phenyl)picolinamido)propanoic acid], 36.7 nM; for `O=C(O)CCNC(=O)c1ccc(-c2cc(C(F)(F)F)cc(C(F)(F)F)c2CNc2ccc(-c3c(Cl)cccc3Cl)cc2)cn1` [Compound 85, 3-(5-(2-(((2′,6′-dichloro-[1,1′-biphenyl]-4-yl)amino)methyl)-3,5-bis(trifluoromethyl)phenyl)picolinamido)propanoic acid], 32.4 nM.
In turn, `Cc1cc(NCc2c(-c3ccc(C(=O)NCCC(=O)O)nc3)cc(C(F)(F)F)cc2C(F)(F)F)ccc1-c1ccc(Cl)cc1` [Compound 86, 3-(5-(2-(((4′-chloro-2-methyl-[1,1′-biphenyl]-4-yl)amino)methyl)-3,5-bis(trifluoromethyl)phenyl)picolinamido)propanoic acid] yielded a Ki of 35 nM.
For `O=C(O)CCNC(=O)c1ccc(-c2cc(C(F)(F)F)cc(C(F)(F)F)c2CNc2ccc(-c3ccc(Cl)cc3Cl)cc2)cn1` [Compound 87, 3-(5-(2-(((2′,4′-dichloro-[1,1′-biphenyl]-4-yl)amino)methyl)-3,5-bis(trifluoromethyl)phenyl)picolinamido)propanoic acid] the value was 17.3 nM; for `N#Cc1cc(NCc2ccc(Cl)cc2-c2ccc(C(=O)NCCC(=O)O)nc2)ccc1-c1ccc(Cl)c(C(F)(F)F)c1` [Compound 98, 3-(5-(5-chloro-2-(((4′-chloro-2-cyano-3′-(trifluoromethyl)-[1,1′-biphenyl]-4-yl)amino)methyl)phenyl)picolinamido)propanoic acid], 195 nM.
With `N#Cc1cc(NCc2ccc(Cl)cc2-c2ccc(C(=O)NCCC(=O)O)nc2)ccc1-c1ccc(Cl)cc1Cl` [Compound 99, 3-(5-(5-chloro-2-(((2′,4′-dichloro-2-cyano-[1,1′-biphenyl]-4-yl)amino)methyl)phenyl)picolinamido)propanoic acid] the figure was 65.4 nM.
For `N#Cc1cc(NCc2ccc(Cl)cc2-c2ccc(C(=O)NCCC(=O)O)nc2)ccc1-c1ccc(F)c(C(F)(F)F)c1` [Compound 100, 3-(5-(5-chloro-2-(((2-cyano-4′-fluoro-3′-(trifluoromethyl)-[1,1′-biphenyl]-4-yl)amino)methyl)phenyl)picolinamido)propanoic acid] the value was 135 nM; for `N#Cc1cc(NCc2ccc(Cl)cc2-c2ccc(C(=O)NCCC(=O)O)nc2)ccc1-c1cccc(C(F)(F)F)c1Cl` [Compound 101, 3-(5-(5-chloro-2-(((2′-chloro-2-cyano-3′-(trifluoromethyl)-[1,1′-biphenyl]-4-yl)amino)methyl)phenyl)picolinamido)propanoic acid], 95 nM.
With `Cc1cc(Cl)ccc1-c1ccc(NCc2ccc(C(F)(F)F)cc2-c2ccc(C(=O)NCCC(=O)O)nc2)cc1C(F)(F)F` [Compound 119, 3-(5-(2-(((4′-chloro-2′-methyl-2-(trifluoromethyl)-[1,1′-biphenyl]-4-yl)amino)methyl)-5-(trifluoromethyl)phenyl)picolinamido)propanoic acid], the Ki was 60 nM.
With `Cc1cc(C(F)(F)F)ccc1-c1ccc(NCc2ccc(C(F)(F)F)cc2-c2ccc(C(=O)NCCC(=O)O)nc2)cc1C(F)(F)F` [Compound 120, 3-(5-(2-(((2′-methyl-2,4′-bis(trifluoromethyl)-[1,1′-biphenyl]-4-yl)amino)methyl)-5-(trifluoromethyl)phenyl)picolinamido)propanoic acid] the figure was 37.4 nM.
With `O=C(O)CCNC(=O)c1ccc(-c2cc(C(F)(F)F)ccc2CNc2ccc(-c3ccc(F)c(C(F)(F)F)c3)c(C(F)(F)F)c2)cn1` [Compound 121, 3-(5-(2-(((4′-fluoro-2,3′-bis(trifluoromethyl)-[1,1′-biphenyl]-4-yl)amino)methyl)-5-(trifluoromethyl)phenyl)picolinamido)propanoic acid] the figure was 100 nM.
For `O=C(O)CCNC(=O)c1ccc(-c2cc(C(F)(F)F)ccc2CNc2ccc(-c3ccc(Cl)cc3Cl)c(C(F)(F)F)c2)cn1` [Compound 122, 3-(5-(2-(((2′,4′-dichloro-2-(trifluoromethyl)-[1,1′-biphenyl]-4-yl)amino)methyl)-5-(trifluoromethyl)phenyl)picolinamido)propanoic acid] the value was 85 nM.
Regarding `O=C(O)CCNC(=O)c1ccc(-c2cc(C(F)(F)F)ccc2CNc2ccc(-c3ccc(Cl)cc3)c(C(F)(F)F)c2)cn1` [Compound 123, 3-(5-(2-(((4′-chloro-2-(trifluoromethyl)-[1,1′-biphenyl]-4-yl)amino)methyl)-5-(trifluoromethyl)phenyl)picolinamido)propanoic acid], affinity was put at a Ki of 110 nM.
For `CC(C)(C)c1ccc(-c2ccc(NCc3ccc(C(F)(F)F)cc3-c3ccc(C(=O)NCCC(=O)O)nc3)cc2C(F)(F)F)cc1` [Compound 124, 3-(5-(2-(((4′-(tert-butyl)-2-(trifluoromethyl)-[1,1′-biphenyl]-4-yl)amino)methyl)-5-(trifluoromethyl)phenyl)picolinamido)propanoic acid] the value was 285 nM; for `O=C(O)CCNC(=O)c1ccc(-c2cc(C(F)(F)F)ccc2CNc2ccc(-c3ccc(F)cc3F)c(C(F)(F)F)c2)cn1` [Compound 125, 3-(5-(2-(((2′,4′-difluoro-2-(trifluoromethyl)-[1,1′-biphenyl]-4-yl)amino)methyl)-5-(trifluoromethyl)phenyl)picolinamido)propanoic acid], 205 nM.
